Reference: PMC3142157, “Sensitive and Specific Fluorescent Probes for Functional Analysis of the Three Major Types of Mammalian ABC Transporters” (PLoS ONE, 2011)

Experiments:
CHO K1 cells = assay: Dye uptake flow cytometry MDR assay (MAF / D-values), CHO K1 cells; assay type: cell-based, hamster; settings: CHO K1 cells, dye uptake protocol
Description: (§1) Detailed protocol for the MDR assay is available in the Instruction Manual for eFluxx-ID® Green or Gold Multi-Drug Resistance Assay Kit (ENZO Life Sciences, Inc., Farmingdale, NY). Briefly, on the day of the assay, cells were collected, washed with PBS and incubated with or without MDR inhibitors in the presence of the eFluxx-ID® Green or Gold probes for 30 min at 37°C and analyzed immediately by flow cytometry. eFluxx-ID® Green or Gold probes are novel xanthene-based small molecule dyes developed for the detection of MDR activity in living cells. In order to exclude dead cells in the analyses, propidium iodide (PI) or 7-actinaminomycin D (7-AAD) solution was added to the cells during the last 5 min of incubation in some experiments.
(§2) To develop a minimal step assay procedure for the dye uptake protocol, three modifications of the protocol were investigated. One set of the cells was treated according to a general “no-wash” protocol (see Instruction Manual for the kit). In the second set of tubes, the reaction was stopped by rapid centrifugation (1 min) at relatively low speed (200×g). After washing with ice-cold PBS and discarding the supernatant, cells were re-suspended in 0.5 ml of ice-cold medium and kept on ice until flow cytometry analysis was performed. The third set of cells was simply spun down (1 min, 200×g) to remove the excess probe, resuspended in ice-cold medium and kept on ice until flow cytometry analysis was performed. eFluxx-ID® Green dye (ex/em 490/514 nm) fluorescence intensity was measured in the FL1/FITC (530/30 filter) channel, and eFluxx-ID® Gold dye (ex/em 530/555 nm) fluorescence intensity was monitored in the FL2/PE (585/42 filter) channel.
(§3) Experiments were performed using a FACS Calibur benchtop flow cytometer (BD Biosciences, San Jose, CA) equipped with a blue (488 nm) laser, and the signals were registered in the FITC (530/30 filter), PE (585/42 filter) and PerCP (670 LP filter) channels. eFluxx-ID® Green dye fluorescence was measured in the FL1/FITC channel, and eFluxx-ID® Gold dye fluorescence, in the FL2/PE channel. Data analysis was performed using FlowJo 8.8.2 software (Tree Star, Inc., Ashland, OR).
(§4) All of the experiments were performed at least three times. Results were expressed as mean ± S.E. Statistical comparisons were made using an unpaired two-tailed Student's t-test. A P value of <0.05 was considered significant. Flow cytometry data were analyzed by comparison of median fluorescence, by using Kolmogorov-Smirnov statistics (D-value) or by calculating MDR Activity Factor (MAF) values using the following formula: MAF = 100*((MFIinh−MFI0)/MFIinh), wherein MFIinh and MFI0 are the mean fluorescence intensity values measured in the presence and absence of inhibitor [7].

HepG2 cells = assay: Dye uptake flow cytometry MDR assay (MAF), HepG2 cells; assay type: cell-based, human
Description: (§5) Detailed protocol for the MDR assay is available in the Instruction Manual for eFluxx-ID® Green or Gold Multi-Drug Resistance Assay Kit (ENZO Life Sciences, Inc., Farmingdale, NY). […] In order to exclude dead cells in the analyses, propidium iodide (PI) or 7-actinaminomycin D (7-AAD) solution was added to the cells during the last 5 min of incubation in some experiments. Experiments were performed using a FACS Calibur benchtop flow cytometer (BD Biosciences, San Jose, CA) equipped with a blue (488 nm) laser, and the signals were registered in the FITC (530/30 filter), PE (585/42 filter) and PerCP (670 LP filter) channels. eFluxx-ID® Green dye fluorescence was measured in the FL1/FITC channel, and eFluxx-ID® Gold dye fluorescence, in the FL2/PE channel. Data analysis was performed using FlowJo 8.8.2 software (Tree Star, Inc., Ashland, OR). All of the experiments were performed at least three times. Results were expressed as mean ± S.E. Statistical comparisons were made using an unpaired two-tailed Student's t-test. […] Additionally, HCT-8 cell line reported to overexpress both MDR1 and MRP transporters, [21] was tested. HCT-8, HCT-15, HepG2, HL-60 and HL-60/MX1 cells were grown on tissue culture dishes and on the day of assay were incubated with eFluxx-ID® Green and Gold probes with and without inhibitors according to the described dye uptake protocol (Materials and Methods) and analyzed by flow cytometry.

HL-60 cells = assay: Dye uptake flow cytometry MDR assay (MAF), HL-60 cells; assay type: cell-based, human
Description: as §5

HCT-8 cells = assay: Dye uptake flow cytometry MDR assay (MAF), HCT-8 cells; assay type: cell-based, human
Description: as §5

HCT-15 cells = assay: Dye uptake flow cytometry MDR assay (MAF), HCT-15 cells; assay type: cell-based, human
Description: as §5

A549 cells = assay: Dye uptake flow cytometry MDR assay (MAF / D-values), A549 cells; assay type: cell-based, human; settings: dye uptake protocol
Description: as §1, §2, §3, §4

HeLa cells = assay: Dye uptake flow cytometry MDR assay (MAF), HeLa cells; assay type: cell-based, human; settings: dye uptake protocol
Description: as §1, §2, §3, §4

HL-60/MX1 cells = assay: Dye uptake flow cytometry MDR assay (MAF), HL-60/MX1 cells; assay type: cell-based, human
Description: as §5

[1] = probe with vs without fumitremorgin C
[2] = probe with vs without probenecid
[3] = probe with vs without verapamil
[4] = probe with vs without CsA, mean ± SEM
[5] = probe with vs without MK571, mean ± SEM
[6] = probe with vs without Nov, mean ± SEM
[7] = probe with vs without Ver, mean ± SEM

In the case of Calcein AM, the “MAF value, Fumitremorgin C” value (CHO K1 cells; [1]) was 6.4, the “MAF value, Probenecid” value (CHO K1 cells; [2]) was 55.3 and the “MAF value, Verapamil” value (CHO K1 cells; [3]) was 63.9. The “MAF value, CsA” value (HepG2 cells; [4]) was 59.0±2.4, the “MAF value, MK571” value (HepG2 cells; [5]) was 40.7±4.5 and the “MAF value, Nov” value (HepG2 cells; [6]) was 3.0±0.1. For the same substance, the “MAF value, Ver” value (HepG2 cells; [7]) was 22.0±2.9, the “MAF value, CsA” value (HL-60 cells; [4]) was 15.2±2.5 and the “MAF value, MK571” value (HL-60 cells; [5]) was 8.0±1.7. The “MAF value, Nov” value (HL-60 cells; [6]) was 8.6±1.5, the “MAF value, Ver” value (HL-60 cells; [7]) was 2.5±1.1 and the “MAF value, CsA” value (HCT-8 cells; [4]) was 46.5±5.1. For the same substance, the “MAF value, MK571” value (HCT-8 cells; [5]) was 31.1±4.7, the “MAF value, Nov” value (HCT-8 cells; [6]) was 7.1±0.4 and the “MAF value, Ver” value (HCT-8 cells; [7]) was 25.9±0.9. The “MAF value, CsA” value (HCT-15 cells; [4]) was 67.2±2.0, the “MAF value, MK571” value (HCT-15 cells; [5]) was 13.5±2.9 and the “MAF value, Nov” value (HCT-15 cells; [6]) was 4.3±2.2. For the same substance, the “MAF value, Ver” value (HCT-15 cells; [7]) was 62.9±2.6, the “MAF value, Fumitremorgin C” value (A549 cells; [1]) was 1.3 and the “MAF value, Probenecid” value (A549 cells; [2]) was 19.5. For the same substance, the “MAF value, Verapamil” value (A549 cells; [3]) was 28.0, the “MAF value, Fumitremorgin C” value (HeLa cells; [1]) was 0.2 and the “MAF value, Probenecid” value (HeLa cells; [2]) was 12.2. For the same substance, the “MAF value, Verapamil” value (HeLa cells; [3]) was 13.0, the “MAF value, CsA” value (HL-60/MX1 cells; [4]) was 18.2±2.7 and the “MAF value, MK571” value (HL-60/MX1 cells; [5]) was 10.8±1.8. The “MAF value, Nov” value (HL-60/MX1 cells; [6]) was 5.9±1.2 and the “MAF value, Ver” value (HL-60/MX1 cells; [7]) was 1.6±0.3.
